We go through one molecule from patent US11045448B2, “Piperidines as covalent menin inhibitors” (THE REGENTS OF THE UNIVERSITY OF MICHIGAN, priority 2017, dated 2021).

One assay concerns the target menin protein (Homo sapiens (Human), UniProt O00255). In words: Fluorescence polarization (FP) competitive binding assay, menin binding affinity. Conditions: menin protein 4 nM, probe 2 nM, room temperature 30 minutes. The essentials:
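FAM-MM2, a FAM-labelled MLL1-peptide probe (2 nM), was preincubated with menin (4 nM) in PBS with 0.02% bovine γ-globulin, 4% DMSO and 0.01% Triton X-100. Compounds were added for 30 min at room temperature with shaking. FP (mP) was read at ex 485/em 530, and IC50 came from nonlinear regression of the competition curves.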

The next assay concerns MV4-11. The assay can be described thus: 7-day proliferation assay (WST-8), MV4-11. It counts as cell-based. Conditions: Homo sapiens, 168 h; Table 5; MV4-11; 7 days; read-out: IC50 in cell growth inhibition. On the procedure:
(§1) The effect of representative Compounds of the Disclosure on cell viability was determined in a 7-day proliferation assay. Cells were maintained in the appropriate culture medium with 10% FBS at 37° C. and an atmosphere of 5% CO2.
(§2) Cells were seeded in 96-well flat bottom (Corning COSTAR, Corning, N.Y., cat #3595) at a density of 2,000-3,000 cells/well in 100 μl of culture medium. Compounds were serially diluted in the appropriate medium, and 100 μl of the diluted compounds were added to the appropriate wells of the cell plate. After the addition of compounds, the cells were incubated at 37° C. in an atmosphere of 5% CO2 for 7 days. Cell viability was determined using the WST (2-(2-methoxy-4-nitrophenyl)-3-(4-nitrophenyl)-5-(2,4-disulfophenyl)-2H-tetrazolium, monosodium salt) Cell Counting-8 Kit (Dojindo Molecular Technologies, Inc., Rockville, Md.) according to the manufacturers' instructions.
(§3) WST-8 reagent was added to each well at a final concentration of 10% (v/v), and then the plates were incubated at 37° C. for 1-2 hours for color development. The absorbance was measured at 450 nm using a SPECTRAmax PLUS plate reader (Molecular Devices, Sunnyvale, Calif.). The readings were normalized to the DMSO-treated cells and the half maximal inhibitory concentration (IC50) was calculated by nonlinear regression (four parameters sigmoid fitted with variable slope, least squares fit, and no constraint) analysis using the GraphPad Prism 5 software (GraphPad Software, La Jolla, Calif.).
For orientation: Tetrazolium assays rely on reduction of a dye to a coloured formazan, in cell work by metabolically active cells.

In a further assay the test system is MOLM13. The assay can be described thus: 7-day proliferation assay (WST-8), MOLM13. It is filed as cell-based. Conditions: Homo sapiens, MOLM-13, 168 h; Table 5; MOLM13; 7 days; read-out: IC50 in cell growth inhibition. On the procedure: as §1, §2, §3
The next assay deals with SEM cells. In words: 7-day proliferation assay (WST-8), SEM. It counts as cell-based. Conditions: 168 h; Table 6; SEM (MLL-AF4); 7 days; read-out: IC50 in cell growth inhibition. On the procedure: as §1, §2, §3
In another assay the test system is MonoMac6. In words: 7-day proliferation assay (WST-8), MonoMac6. It is filed as cell-based. Conditions: Homo sapiens, MONO-MAC-6, 168 h; Table 6; MonoMac6 (MLL-AF9); 7 days; read-out: IC50 in cell growth inhibition. On the procedure: as §1, §2, §3
Another assay concerns RS4-11. The assay can be described thus: 7-day proliferation assay (WST-8), RS4-11. Conditions: Homo sapiens, RS4-11, 168 h; Table 6; 7 days; read-out: IC50 in cell growth inhibition. It is filed as cell-based. On the procedure:
as §1, §2, §3

In a further assay the test system is MOLM-4 (MLL-AF9). In words: 7-day proliferation assay (WST-8), MOLM-4. It is filed as cell-based. Conditions: 168 h, Table 6, 7 days, read-out: IC50 in cell growth inhibition. On the procedure: as §1, §2
(§4) WST-8 reagent was added to each well at a final concentration of 10% (v/v), and then the plates were incubated at 37° C. for 1-2 hours for color development. The absorbance was measured at 450 nm using a SPECTRAmax PLUS plate reader (Molecular Devices, Sunnyvale, Calif.). […]

The next assay deals with K562 (no MLL fusion). The assay can be described thus: 7-day proliferation assay (WST-8), K562. Conditions: Homo sapiens, 168 h, Table 6, 7 days, read-out: IC50 in cell growth inhibition. It is filed as cell-based. The protocol:
as §1, §2, §4

The subject of another assay is MOLM-16 (no MLL fusion). The assay can be described thus: 7-day proliferation assay (WST-8), MOLM-16. It counts as cell-based. Conditions: MOLM16, 168 h, Table 6, 7 days, read-out: IC50 in cell growth inhibition. The protocol:
as §1, §2, §4

A further assay relates to SKM-1 (no MLL fusion). In words: 7-day proliferation assay (WST-8), SKM-1. Conditions: Homo sapiens, 168 h, Table 6, 7 days, read-out: IC50 in cell growth inhibition. It is filed as cell-based. The protocol: as §1, §2, §4
The next assay relates to HL-60 (no MLL fusion). In words: 7-day proliferation assay (WST-8), HL-60. It counts as cell-based. Conditions: Homo sapiens, 168 h, Table 6, 7 days, read-out: IC50 in cell growth inhibition. The protocol: as §1, §2, §4
For assay [1], the system named is MEIS1 and HOXA gene expression in MV4;11 cell lines. In words: MEIS1 and HOXA gene expression by RT-PCR in MV4;11. Conditions: for MEIS1 and HOXA gene expression (mRNA levels of MEIS1, HOXA9 and HOXA11): different concentrations. It is filed as cell-based. On the procedure: FIG. 4 is a bar graph showing that Cpd. No. 57 suppresses MEIS1 and HOXA gene expression in MV4;11 cell lines. Cells were treated with different concentrations of Cpd. No. 57 for 24 h. mRNA levels of MEIS1, HOXA9 and HOXA11 were determined by RT-PCR. *(p<0.05), **(p<0.01).
FIG. 5 is a bar graph showing that Cpd. No. 57 suppresses MEIS1 and HOXA gene expression in MV4;11 cell lines. Cells were treated with different concentrations of Cpd. No. 57 for 6 h. mRNA levels of MEIS1, HOXA9 and HOXA11 were determined by RT-PCR. *(p<0.05), **(p<0.01).
(§5) No. 57 suppresses MEIS1 and HOXA gene expression in MV4;11 and MOLM13 cell lines.

For assay [2], the system named is MEIS1 and HOXA gene expression in MOLM13 cell lines. In words: MEIS1 and HOXA gene expression by RT-PCR in MOLM13. It is filed as cell-based. On the procedure: FIG. 6 is a bar graph showing that Cpd. No. 57 suppresses MEIS1 and HOXA gene expression in MOLM13 cell lines. Cells were treated with different concentrations of Cpd. No. 57 for 24 h. mRNA levels of MEIS1, HOXA9 and HOXA11 were determined by RT-PCR. *(p<0.05), **(p<0.01).
as §5

Sequence of menin protein (O00255 whole entry): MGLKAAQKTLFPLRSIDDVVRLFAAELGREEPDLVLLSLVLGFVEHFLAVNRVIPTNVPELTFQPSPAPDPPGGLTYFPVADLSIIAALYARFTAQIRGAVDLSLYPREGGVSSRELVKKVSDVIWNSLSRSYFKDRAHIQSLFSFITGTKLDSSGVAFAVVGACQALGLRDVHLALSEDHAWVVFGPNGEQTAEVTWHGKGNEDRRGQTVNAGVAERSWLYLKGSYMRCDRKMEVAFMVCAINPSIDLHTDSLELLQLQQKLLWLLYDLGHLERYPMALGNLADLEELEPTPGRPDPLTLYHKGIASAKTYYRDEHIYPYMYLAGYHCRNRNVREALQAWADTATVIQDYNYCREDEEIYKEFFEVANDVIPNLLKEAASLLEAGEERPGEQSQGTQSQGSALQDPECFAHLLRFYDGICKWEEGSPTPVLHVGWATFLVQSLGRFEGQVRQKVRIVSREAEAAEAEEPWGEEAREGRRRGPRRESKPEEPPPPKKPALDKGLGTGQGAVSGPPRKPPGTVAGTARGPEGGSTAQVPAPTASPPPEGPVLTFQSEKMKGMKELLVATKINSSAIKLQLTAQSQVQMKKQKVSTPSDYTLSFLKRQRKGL

As to `COC(=O)N[C@H]1CCC[C@@H]1[C@](C#N)(c1cccc(F)c1)C1CCN(CC2CN(c3ccc(S(=O)(=O)C4CN(C(=O)/C=C/CN(C)C)C4)cc3)C2)CC1` [Cpd. No. 57, methyl ((1S,2R)-2-((S)-cyano(1-((1-(4-((1-((E)-4-(dimethylamino)but-2-enoyl)azetidin-3-yl)sulfonyl)phenyl)azetidin-3-yl)methyl)piperidin-4-yl)(3-fluorophenyl)methyl)cyclopentyl)carbamate], the IC50 is 3 nM on menin protein; 2.3 nM in the assay on MV4-11; 15.4 nM with MOLM13; 18 nM in the assay on SEM cells; 10.3 nM with MonoMac6; 9.4 nM in the assay with RS4-11. In addition, the IC50 in the assay on MOLM-4 (MLL-AF9) was determined as 31.3 nM; in the assay on K562 (no MLL fusion), 4500 nM; with MOLM-16 (no MLL fusion), 6500 nM; with SKM-1 (no MLL fusion), 900 nM; in the assay with HL-60 (no MLL fusion), 1600 nM. In addition, the “MEIS1 and HOXA gene expression (mRNA levels of MEIS1, HOXA9 and HOXA11)” value in assay [1] (MV4;11, 6 h, RT-PCR (FIG. 5)) was “suppresses”; in assay [1] (MV4;11, 24 h, RT-PCR (FIG. 4)), “suppresses”; in [2] (MOLM13, 24 h, different concentrations, RT-PCR (FIG. 6)), “suppresses”. Moreover, the “MEIS1 and HOXA gene expression” value was “suppresses” in assay [1] (MV4;11, summary sentence for FIG. 4, FIG. 5) and “suppresses” in assay [2] (MOLM13, summary sentence for FIG. 6).

Broadly, the IC50 is the midpoint of a concentration-inhibition curve.
